Assay results taken from patent US11001581B2, “Compounds which inhibit RNA polymerase, compositions including such compounds, and their use” (THE JOHNS HOPKINS UNIVERSITY, priority 2014, dated 2021).

How the values were obtained:
NCI60 cancer cell lines = conditions: earlier studies of the inventors; cited from earlier work
tumor burden = conditions: earlier studies of the inventors; cited from earlier work
RPA194 = assay: Determination of RPA194 IC50 (immunofluorescence image analysis of RPA194 degradation); format: cell-based; conditions: U2OS cells, 3 h treatment, 0.1-10 μM, fold change to control, three-parameter fit
Source text: (§1) Immunofluorescence, Epifluorescence Microscopy and Image Analysis. […] Cells were stained for RPA194 (C-1, Santa Cruz Biotechnology) and NCL (4E2, Abeam). […] DNA was counterstained with DAPI (Invitrogen). Images were captured using Axioplan2 fluorescence microscope (Zeiss) equipped with AxioCam HRc CCD-camera and AxioVision 4.5 software using EC Plan-Neofluar 20×/0.75 objective (Zeiss). […] Hue saturation and brightness range were defined individually for RPA194 and NCL. All values were normalized to the DNA content. Two-four fields of each treatment were recorded and quantification was based on an average of 200 cells.
(§2) Determination of RPA194 and NCL IC50. U2OS cells grown on coverslips were treated the compounds at 0.1, 0.5, 1, 5 and 10 μM, or vehicle (DMSO)-treated for 3 h and fixed and stained as above. All compounds, except when indicated, were tested in duplicate independent biological experiments Immunostaining for NCL and RPA194 was conducted separately, and cells were counterstained for DNA. Two-four fields of each treatment were captured using epifluorescence microscopy as above, and contained on average of 200 cells/analysis. […] Hue saturation and brightness range were defined individually for RPA194 and NCL, and all values were normalized to the DNA content.

NCL = assay: Determination of NCL IC50 (loss of NCL nucleolar intensity, immunofluorescence image analysis); format: cell-based; conditions: U2OS cells, 3 h treatment, 0.1-10 μM, fold change to control, three-parameter fit
Source text: as §1
as §2, with “U2OS cells grown on coverslips were treated the compounds at 0.1, 0.5, 1, 5 and 10 μM, or vehicle (DMSO)-treated for 3 h and fixed and stained as above.” left out

SMILES	anticancer activity in NCI60 cancer cell lines (NCI60 cancer cell lines)	tumor burden in mouse xenograft assays (tumor burden)	IC50 (RPA194)	IC50 (NCL)
CN(C)CCNC(=O)c1cccn2c(=O)c3cc4ccccc4cc3nc12 [BMH-21, 12H-Benzo[g]pyrido[2,1-b]quinazoline-4-carboxamide, N-[2(dimethylamino)ethyl]-12-oxo]	broad and potent anticancer activity	reduced tumor burden	–	–
CC(C)(N)CNC(=O)c1cccn2c(=O)c3cc4ccccc4cc3nc12 [Compound 30, N-(2-amino-2-methyl-propyl)-12-oxo-12H-benzo[g]pyrido[2,1-b]quinazoline-4-carboxamide]	–	–	0.27 µM	0.2 µM
CC(N)CNC(=O)c1cccn2c(=O)c3cc4ccccc4cc3nc12 (stereo not drawn) [Compound 32, N-(2-aminopropyl)-12-oxo-12H-benzo[g]pyrido[2,1-b]quinazoline-4-carboxamide]	–	–	0.1 µM	0.1 µM
CN(C)C(C)(C)CNC(=O)c1cccn2c(=O)c3cc4ccccc4cc3nc12 [Compound 31, N-[2-(dimethylamino)-2-methyl-propyl]-12-oxo-12H-benzo[g]pyrido[2,1-b]quinazoline-4-carboxamide]	–	–	0.16 µM	0.14 µM
C[C@@H](N)CNC(=O)c1cccn2c(=O)c3cc4ccccc4cc3nc12 [Compound 33, N-[(2R)-2-aminopropyl]-12-oxo-12H-benzo[g]pyrido[2,1-b]quinazoline-4-carboxamide]	–	–	0.11 µM	0.81 µM
C[C@H](N)CNC(=O)c1cccn2c(=O)c3cc4ccccc4cc3nc12 [Compound 35, N-[(2S)-2-aminopropyl]-12-oxo-12H-benzo[g]pyrido[2,1-b]quinazoline-4-carboxamide]	–	–	0.12 µM	0.17 µM
CCN(CC)C1CCN(C(=O)c2cccn3c(=O)c4cc5ccccc5cc4nc23)C1 (stereo not drawn) [Compound 19, 4-[3-(diethylamino)pyrrolidine-1-carbonyl]-12H-benzo[g]pyrido[2,1-b]quinazoline-12-one]	–	–	32 µM	11 µM
O=C(NCCc1ccncc1)c1cccn2c(=O)c3cc4ccccc4cc3nc12 [Compound 37, 12-oxo-N-[2-(4-pyridyl)ethyl]-12H-benzo[g]pyrido[2,1-b]quinazoline-4-carboxamide]	–	–	3.5 µM	> 100 µM
CN1CC(NC(=O)c2cccn3c(=O)c4cc5ccccc5cc4nc23)C1 [Compound 29, N-(1-methylazetidin-3-yl)-12-oxo-12H-benzo[g]pyrido[2,1-b]quinazoline-4-carboxamide]	–	–	0.9 µM	0.47 µM
